Patent publication US8772504B2, “Substituted benzoxazole, benzimidazole, oxazolopyridine and imidazopyridine derivatives as gamma secretase modulators” (Janssen Pharmaceuticals, Inc., priority 2009, dated 2014)

Experiments:
Aβ42 = assay: Screening for γ-secretase-modulating activity, Method 1: Aβ42 sandwich ELISA on SKNBE2 cell media; assay type: cell-based; settings: SKNBE2 cells carrying APP 695 wild type
How it was run: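 SKNBE2 cells expressing wild-type APP695 were treated with compound for 18 h in Ultraculture/1% glutamine. Secreted Aβ42 was quantified by sandwich ELISA (C-terminal capture, biotinylated 3D6, TMB, 450 nm), with WST-1 used as a toxicity check. IC50 was derived from 4-parameter fits of % inhibition or % of untreated control.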

Aβtotal = assay: Screening for γ-secretase-modulating activity, Method 2: Aβtotal Alphalisa on SKNBE2 cell supernatant; assay type: cell-based; settings: Method 2, Table 3c, SKNBE2 cells carrying APP 695 wild type, overnight incubation
How it was run: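 SKNBE2 cells expressing wild-type APP695, plated at 10^4 cells/well with compound at several concentrations and incubated overnight at 37° C. Aβ42 (C-terminal capture, N-terminal biotinylated detection) and Aβtotal (N-terminal/4G8 pair) measured in supernatant by AlphaLISA. IC50 from 4-parameter fit of percent of compound-free control.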

[1] = Homo sapiens, Table 3a, 18 hours, XLfit, top/bottom fixed to 100 and 0, hill slope 1
[2] = Homo sapiens, Table 3b, non-linear regression of % of control, averaged IC50 values
[3] = Table 3a, 18 hours, XLfit, top/bottom fixed to 100 and 0, hill slope 1
[4] = Table 3b, non-linear regression of % of control, averaged IC50 values

| Compound | IC50 (Aβ42; [1]) | IC50 (Aβ42; [2]) | IC50 (Aβtotal; Homo sapiens) | IC50 (Aβ42; [3]) | IC50 (Aβ42; [4]) | IC50 (Aβtotal) |
| --- | --- | --- | --- | --- | --- | --- |
| COc1cc(Nc2cccc3c2nc(-c2ccc(F)cc2)n3C)ccc1-n1cnc(C)c1 [Compound 1] | 22 nM | 21 nM | 590 nM |  |  |  |
| COc1cc(Nc2cccc3c2nc(-c2ccc(F)cc2)n3C)ccc1-n1cnc(C)n1 [Compound 4] | 23 nM | 22 nM | > 10000 nM |  |  |  |
| COc1cc(Nc2nccc3c2nc(-c2ccc(F)cc2)n3C)ccc1-n1cnc(C)c1 [Compound 8] | 22 nM | 22 nM | > 10000 nM |  |  |  |
| CCn1c(CC2CC2)nc2c(Nc3ccc(-n4cnc(C)c4)c(OC)c3)cccc21 [Compound 36] |  |  |  | 31 nM | 28 nM | 7410 nM |
| COc1cc(Nc2cccc3c2nc(Oc2ccccc2)n3C)ccc1-n1cnc(C)c1 [Compound 61] |  |  |  | 63 nM | 59 nM | 8510 nM |
| Cc1ncn(-c2ccc(Nc3cccc4c3nc(-c3ccc(F)cc3)n4C(C)C)cc2)n1.Cl.Cl [Compound 73] |  |  |  | 96 nM | 89 nM | > 10000 nM |
| COc1cc(Nc2cccc3c2nc(-c2ccc(F)cc2)n3C(C)C)ccc1-n1cnc(C)n1.Cl.Cl [Compound 75] |  |  |  | 19 nM | 19 nM | 7760 nM |
| Cc1ncn(-c2ccc(Nc3cccc4c3nc(-c3ccc(F)cc3)n4C(C)C)cn2)n1 [Compound 76] |  |  |  | 48 nM | 46 nM | > 10000 nM |
| COc1cc(Nc2cc(C(C)C)nc3c2nc(-c2ccc(F)cc2)n3C)ccc1-n1cnc(C)n1 [Compound 110] | 4 nM | 18 nM | > 10000 nM |  |  |  |
| COc1cc(Nc2nc(C)cc3c2nc(-c2ccc(F)cc2)n3C)ccc1-n1cnc(C)n1 [Compound 164] |  |  |  |  | 32 nM | > 10000 nM |

Continued, values first:

| IC50 (Aβ42; [1]) | IC50 (Aβ42; [2]) | IC50 (Aβtotal; Homo sapiens) | IC50 (Aβ42; [3]) | IC50 (Aβ42; [4]) | IC50 (Aβtotal) | Compound |
| --- | --- | --- | --- | --- | --- | --- |
| 6 nM | 8 nM | 7940 nM |  |  |  | COc1nc(Nc2cccc3c2nc(-c2ccc(F)cc2)n3C)ccc1-n1cnc(C)c1 [Compound 15] |
|  |  |  | 12 nM | 8 nM | > 10000 nM | Cc1cn(-c2ccc(Nc3cccc4c3nc(-c3ccc(F)cc3)n4C)cc2F)cn1 [Compound 67] |
|  |  |  | 129 nM | 129 nM | 4270 nM | COc1cc(Nc2nccc3c2nc(-c2ccc(F)cc2)n3C)ccc1-n1cnc(C)n1 [Compound 92] |
| 10 nM | 54 nM | 3890 nM |  |  |  | COc1cc(-c2nc3c(Nc4ccc(-n5cnc(C)n5)c(OC)c4)nccc3n2C)ccc1Cl [Compound 114] |
|  |  |  | 2 nM |  | > 10000 nM | COc1nc(Nc2cc(F)cc3c2nc(-c2ccc(F)cc2)n3C)ccc1-n1cnc(C)c1 [Compound 115] |
|  |  |  |  | 69 nM | > 10000 nM | COc1cc(Nc2nccc3c2nc(-c2ccccc2C(F)(F)F)n3C)ccc1-n1cnc(C)n1 [Compound 130] |
